Laboratory results published in patent US12448388B2, “PRMT5 inhibitors and uses thereof” (Gilead Sciences, Inc., priority 2023, dated 2025).

test system: HCT116 MTAP-deleted cell lines; test: Cell viability assay (CellTiter-Glo, 7 days), HCT116 MTAP-deleted; type: cell-based; details: Homo sapiens, HCT-116; cell viability assay, HCT116 MTAP-deleted; class symbols; read-out: CC50
How it was run: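 Each PRMT5 inhibitor was tested as a dose response alongside tool compounds on the same plate. Incubation ran 7 days at 37 °C under 5% CO2, after which CellTiter-Glo luminescence was recorded and CC50 calculated.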

Row | SMILES | CC50
1 | CC(C)N(Cc1ccc(-c2cccc(OC(F)F)c2)cc1F)C(=O)c1cc2c(cc1F)nc(N)c1cncn12 [Ff-592, 4-amino-N-((3′-(difluoromethoxy)-3-fluoro-[1,1′-biphenyl]-4-yl)methyl)-7-fluoro-N-isopropylimidazo[1,5-a]quinoxaline-8-carboxamide] | < 0.1 µM
2 | COC1(C#Cc2ccc3c(c2)OC[C@H]3N(C)C(=O)c2cc3c(cc2F)nc(N)c2cncn23)CCC1 [Ff-517, (S)-4-amino-7-fluoro-N-(6-((1-methoxycyclobutyl)ethynyl)-2,3-dihydrobenzofuran-3-yl)-N-methylimidazo[1,5-a]quinoxaline-8-carboxamide] | 0.1 to 1 µM
3 | CC1(N(Cc2ccc(C(F)(F)F)cn2)C(=O)c2cc3c(cc2F)nc(N)c2cncn23)CC1 [Ff-468, 4-amino-7-fluoro-N-(1-methylcyclopropyl)-N-((5-(trifluoromethyl)pyridin-2-yl)methyl)imidazo[1,5-a]quinoxaline-8-carboxamide] | < 0.1 µM
4 | Nc1nc2cc(F)c(C(=O)N3CCO[C@@H]4Cc5cc(F)ccc5[C@@H]43)cc2n2cncc12 (single isomer, unassigned) [Ff-467] | < 0.1 µM
5 | CN(C(=O)c1cc2c(cc1F)nc(N)c1cncn12)[C@H](CC1CC1)c1ccc(C(F)(F)F)cn1 [Ff-541, (R)-4-amino-N-(2-cyclopropyl-1-(5-(trifluoromethyl)pyridin-2-yl)ethyl)-7-fluoro-N-methylimidazo[1,5-a]quinoxaline-8-carboxamide] | 0.1 to 1 µM
6 | CN(C(=O)c1cc2c(cc1F)nc(N)c1cncn12)[C@@H]1COc2cc(-c3cnn(-c4ccccc4)c3)ccc21 [Ff-472, (S)-4-amino-7-fluoro-N-methyl-N-(6-(1-phenyl-1H-pyrazol-4-yl)-2,3-dihydrobenzofuran-3-yl)imidazo[1,5-a]quinoxaline-8-carboxamide] | < 0.1 µM
7 | CN(C(=O)c1cc2c(cc1F)nc(N)c1cncn12)[C@@H]1COc2c1ccc(Cl)c2Cl (single isomer, unassigned) [Ff-606] | 0.1 to 1 µM
8 | CCN(C(=O)c1cc2c(cc1F)nc(N)c1cncn12)[C@H](C)c1ncc(C(F)(F)F)cc1F [Ff-538, (R)-4-amino-N-ethyl-7-fluoro-N-(1-(3-fluoro-5-(trifluoromethyl)pyridin-2-yl)ethyl)imidazo[1,5-a]quinoxaline-8-carboxamide] | < 0.1 µM
9 | Nc1nc2cc(F)c(C(=O)N3CCC[C@@H]4Oc5cc(OC(F)(F)F)c(F)cc5[C@@H]43)cc2n2cncc12 (single isomer, unassigned) [Ff-396] | < 0.1 µM
10 | Nc1nc2ccc(C(=O)N(Cc3ccc(C(F)(F)F)cc3F)C3CCC3)cc2n2cncc12 [Ff-408, 4-amino-N-cyclobutyl-N-[[2-fluoro-4-(trifluoromethyl)phenyl]methyl]imidazo[1,5-a]quinoxaline-8-carboxamide] | < 0.1 µM
11 | CN(Cc1ccc(OCC(F)(F)F)cc1)C(=O)c1cc2c(cc1F)nc(N)c1cncn12 [Ff-433, 4-amino-7-fluoro-N-methyl-N-[[4-(2,2,2-trifluoroethoxy)phenyl]methyl]imidazo[1,5-a]quinoxaline-8-carboxamide] | 0.1 to 1 µM
12 | CN(C(=O)c1cc2c(cc1F)nc(N)c1cncn12)[C@@H]1COc2cc(C3CC3)ccc21 [Ff-546, (S)-4-amino-N-(6-cyclopropyl-2,3-dihydrobenzofuran-3-yl)-7-fluoro-N-methylimidazo[1,5-a]quinoxaline-8-carboxamide] | < 0.1 µM
13 | Cc1ncn2c1c(N)nc1cc(F)c(C(=O)N3CC[C@H]4C[C@@H]3c3ccc(C(F)(F)F)nc3O4)cc12 [Fg-33, (4-amino-7-fluoro-3-methylimidazo[1,5-a]quinoxalin-8-yl)((2S,6R)-9-(trifluoromethyl)-3,4-dihydro-2H-2,6-methanopyrido[2,3-b][1,5]oxazocin-5(6H)-yl)methanone] | < 0.1 µM
14 | Cc1ncn2c1c(N)nc1cnc(C(=O)N3C[C@H](C)O[C@@H]4Cc5cc(C(F)(F)F)ccc5[C@@H]43)cc12 [Ff-498, (4-amino-3-methylimidazo[1,5-a]pyrido[3,4-e]pyrazin-8-yl)((2S,4aS,9aR)-2-methyl-7-(trifluoromethyl)-2,3,9,9a-tetrahydroindeno[2,1-b][1,4]oxazin-4(4aH)-yl)methanone] | < 0.1 µM
15 | Cc1ncn2c1c(N)nc1cnc(C(=O)N3CC(C)(C)CC4Oc5cc(OC(F)(F)F)ccc5C43)cc12 (centres unmarked) [Fg-27, (4-amino-3-methylimidazo[1,5-a]pyrido[3,4-e]pyrazin-8-yl)(3,3-dimethyl-7-(trifluoromethoxy)-3,4,4a,9b-tetrahydrobenzofuro[3,2-b]pyridin-1(2H)-yl)methanone] | 0.1 to 1 µM
16 | C[C@@H]1C[C@@H]2Oc3cc(OC(F)(F)F)ccc3[C@@H]2N(C(=O)c2cc3c(cc2F)nc(N)c2cncn23)C1 [Ff-500, (4-amino-7-fluoroimidazo[1,5-a]quinoxalin-8-yl)((3R,4aS,9bS)-3-methyl-7-(trifluoromethoxy)-3,4,4a,9b-tetrahydrobenzofuro[3,2-b]pyridin-1(2H)-yl)methanone] | < 0.1 µM
17 | C[C@H]1CN(C(=O)c2cc3c(cc2F)nc(N)c2cncn23)[C@H]2Cc3ccccc3[C@H]2O1 (single isomer, unassigned) [Ff-623] | 0.1 to 1 µM

same assay, conditions: Homo sapiens, HCT-116; cell viability, HCT116 MTAP-deleted; class symbols; read-out: CC50

Row | SMILES | CC50
18 | CC1Oc2cc(C(F)(F)F)ccc2C1N(C)C(=O)c1cc2c(cc1F)nc(N)c1cncn12 (centres unmarked) [Ff-114, 4-amino-7-fluoro-N-methyl-N-(2-methyl-6-(trifluoromethyl)-2,3-dihydrobenzofuran-3-yl)imidazo[1,5-a]quinoxaline-8-carboxamide] | < 0.1 µM
19 | Cc1ncc2c(N)nc3ccc(C(=O)N(C)Cc4cc5cc(C(F)(F)F)ccn5n4)cc3n12 [Ff-49, 4-amino-N,1-dimethyl-N-((5-(trifluoromethyl)pyrazolo[1,5-a]pyridin-2-yl)methyl)imidazo[1,5-a]quinoxaline-8-carboxamide] | > 1 µM
20 | Nc1nc2ccc(C(=O)N(Cc3ccc(C(F)(F)F)cn3)C34COC(C3)C4)cc2n2cncc12 [Ff-267, 4-amino-N-(2-oxabicyclo[2.1.1]hexan-4-yl)-N-((5-(trifluoromethyl)pyridin-2-yl)methyl)imidazo[1,5-a]quinoxaline-8-carboxamide] | 0.1 to 1 µM
21 | CN(C(=O)c1ccc2nc(N)c3cncn3c2c1)C1CCc2nc(C(F)(F)F)ccc21 (centres unmarked) [Ff-266, 4-amino-N-methyl-N-(2-(trifluoromethyl)-6,7-dihydro-5H-cyclopenta[b]pyridin-5-yl)imidazo[1,5-a]quinoxaline-8-carboxamide] | 0.1 to 1 µM
22 | Nc1nc2ccc(C(=O)N3CCC[C@@H]4Cc5cc(C(F)(F)F)ccc5[C@@H]43)cc2n2cncc12 (racemic) [Ff-249, Rac-(4-aminoimidazo[1,5-a]quinoxalin-8-yl)((4aR,9bR)-7-(trifluoromethyl)-2,3,4,4a,5,9b-hexahydro-1H-indeno[1,2-b]pyridin-1-yl)methanone] | 0.1 to 1 µM
23 | CN(C(=O)c1cc2c(cc1F)nc(N)c1cncn12)[C@@H]1COc2cc(-c3cnc(C(F)(F)F)s3)ccc21 [Ff-232, (S)-4-amino-7-fluoro-N-methyl-N-(6-(2-(trifluoromethyl)thiazol-5-yl)-2,3-dihydrobenzofuran-3-yl)imidazo[1,5-a]quinoxaline-8-carboxamide] | < 0.1 µM
24 | CC(C)N(Cc1ccc(-c2cnn(C(F)F)c2)cc1F)C(=O)c1ccc2nc(N)c3cncn3c2c1 [Ff-51, 4-amino-N-(4-(1-(difluoromethyl)-1H-pyrazol-4-yl)-2-fluorobenzyl)-N-isopropylimidazo[1,5-a]quinoxaline-8-carboxamide] | 0.1 to 1 µM
25 | CN(C(=O)c1cc2c(cc1F)nc(N)c1cncn12)[C@@H]1CCc2nc(C(F)(F)F)ccc21 [Ff-318, (R)-4-amino-7-fluoro-N-methyl-N-(2-(trifluoromethyl)-6,7-dihydro-5H-cyclopenta[b]pyridin-5-yl)imidazo[1,5-a]quinoxaline-8-carboxamide] | < 0.1 µM
26 | Nc1nc2cc(F)c(C(=O)N(Cc3ccc(C(F)(F)F)cc3F)C34COC(C3)C4)cc2n2cncc12 [Ff-272, 4-amino-N-(2-oxabicyclo[2.1.1]hexan-4-yl)-7-fluoro-N-(2-fluoro-4-(trifluoromethyl)benzyl)imidazo[1,5-a]quinoxaline-8-carboxamide] | < 0.1 µM
27 | Cc1ncc2c(N)nc3cc(F)c(C(=O)N4CCC[C@@H]5OCc6nc(C(F)(F)F)ccc6[C@@H]54)cc3n12 [Ff-359, (4-amino-7-fluoro-1-methylimidazo[1,5-a]quinoxalin-8-yl)((4aS,10bS)-8-(trifluoromethyl)-2,3,4,4a,6,10b-hexahydro-1H-pyrano[3,2-b:5,4-b′]dipyridin-1-yl)methanone] | < 0.1 µM
28 | COc1cc(C(F)(F)F)ccc1CN(C)C(=O)c1ccc2nc(N)c3cncn3c2c1 [Ff-125, 4-amino-N-(2-methoxy-4-(trifluoromethyl)benzyl)-N-methylimidazo[1,5-a]quinoxaline-8-carboxamide] | 0.1 to 1 µM
29 | Cn1cc(N(Cc2ccc(C(F)(F)F)cc2F)C(=O)c2cc3c(cc2F)nc(N)c2cncn23)cn1 [Ff-45, 4-amino-7-fluoro-N-(2-fluoro-4-(trifluoromethyl)benzyl)-N-(1-methyl-1H-pyrazol-4-yl)imidazo[1,5-a]quinoxaline-8-carboxamide] | < 0.1 µM
30 | C[C@@H]1OC[C@@H](N(C)C(=O)c2ccc3nc(N)c4cncn4c3c2)c2ccc(C(F)(F)F)cc21 (racemic) [Ff-41, Trans-4-amino-N-methyl-N-(trans-1-methyl-7-(trifluoromethyl)isochroman-4-yl)imidazo[1,5-a]quinoxaline-8-carboxamide] | < 0.1 µM
31 | Nc1nc2cc(F)c(C(=O)N3C[C@H](F)CC[C@H]3c3ccc(C(F)(F)F)cn3)cc2n2cncc12 (single isomer, unassigned) [Ff-245] | 0.1 to 1 µM
32 | CN(Cc1nc(-c2cnn(C(F)F)c2)cs1)C(=O)c1cc2c(cc1F)nc(N)c1cncn12 [Ff-48, 4-amino-N-((4-(1-(difluoromethyl)-1H-pyrazol-4-yl)thiazol-2-yl)methyl)-7-fluoro-N-methylimidazo[1,5-a]quinoxaline-8-carboxamide] | 0.1 to 1 µM
